Assay results taken from ChEMBL document CHEMBL1201862, “PubChem BioAssay data set” (2004).
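1) Cells in 96-well plates. 2) Compound, 48 h, 5 concentrations. 3) Linear interpolation between surrounding doses. 4) Unreached endpoint = highest concentration. GI50 marks 50% less growth.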 Active and inactive are the calls of the source. Cut-off read from the data, not from the text of the source: active = GI50 up to about 1.1 µM and inactive = higher.

What was measured:
Experiment in all cases: inhibition of tumour cell growth, NCI panel, 48 h
[1] = system: NCI-H522
[2] = system: SK-MEL-5
[3] = system: NCI-H460
[4] = system: SK-MEL-2
[5] = system: DLD-1
[6] = system: TK-10
[7] = system: HOP-62
[8] = system: OVCAR-8
[9] = system: OVCAR-5
[10] = system: SW-620
[11] = system: SNB-78
[12] = system: A498
[13] = system: DMS-114
[14] = system: UO-31
[15] = system: RPMI-8226
[16] = system: K562
[17] = system: M14
[18] = system: SF-268
[19] = system: HCT-15
[20] = system: SK-OV-3
[21] = system: IGROV-1
[22] = system: UACC-257
[23] = system: NCI-H226
[24] = system: KM-20L2
[25] = system: SF-295
[26] = system: 786-0
[27] = system: SNB-19
[28] = system: HOP-18
[29] = system: A549
[30] = system: CCRF-CEM
[31] = system: HL-60
[32] = system: LXFL 529
[33] = system: M19-MEL
[34] = system: U-251
[35] = system: UACC-62
[36] = system: SF-539
[37] = system: COLO 205
[38] = system: EKVX
[39] = system: RXF 393
[40] = system: SK-MEL-28
[41] = system: HCT-116
[42] = system: OVCAR-4
[43] = system: KM12
[44] = system: SR
[45] = system: SNB-75
[46] = system: SN12C
[47] = system: HT-29
[48] = system: HOP-92
[49] = system: CAKI-1
[50] = system: Malme-3M
[51] = system: ACHN
[52] = system: DMS-273
[53] = system: OVCAR-3
[54] = system: LOX IMVI
[55] = system: NCI-H23
[56] = system: HCC 2998
[57] = system: MOLT-4

Question: With Cc1ccc(S(=O)(=O)OCCn2cnc3nc(NC(=O)c4ccccc4)[nH]c(=O)c32)cc1 as the molecule, how does the GI50 [1] read?
Answer: 52.6 µM (inactive)

Question: What about the GI50 [2] of the same molecule?
Answer: > 100 µM (inactive)

Question: And the GI50 [3]?
Answer: > 100 µM (inactive)

Question: And the GI50 [4]?
Answer: > 100 µM (inactive)

Question: What about the GI50 [5] of the same molecule?
Answer: > 100 µM (inactive)

Question: And the GI50 [6]?
Answer: > 100 µM (inactive)

Question: And the GI50 [7]?
Answer: > 100 µM (inactive)

Question: What about the GI50 [8] of the same molecule?
Answer: > 100 µM (inactive)

Question: What about the GI50 [9] of the same molecule?
Answer: > 100 µM (inactive)

Question: And the GI50 [10]?
Answer: > 100 µM (inactive)

Question: And the GI50 [11]?
Answer: > 100 µM (inactive)

Question: And the GI50 [12]?
Answer: > 100 µM (inactive)

Question: And the GI50 [13]?
Answer: > 100 µM (inactive)

Question: What about the GI50 [14] of the same molecule?
Answer: > 100 µM (inactive)

Question: What about the GI50 [15] of the same molecule?
Answer: > 100 µM (inactive)

Question: And the GI50 [16]?
Answer: > 100 µM (inactive)

Question: What about the GI50 [17] of the same molecule?
Answer: > 100 µM (inactive)

Question: What about the GI50 [18] of the same molecule?
Answer: > 100 µM (inactive)

Question: What about the GI50 [19] of the same molecule?
Answer: > 100 µM

Question: And the GI50 [20]?
Answer: > 100 µM (inactive)

Question: And the GI50 [21]?
Answer: > 100 µM (inactive)

Question: What about the GI50 [22] of the same molecule?
Answer: > 100 µM (inactive)

Question: What about the GI50 [23] of the same molecule?
Answer: > 100 µM (inactive)

Question: And the GI50 [24]?
Answer: > 100 µM (inactive)

Question: And the GI50 [25]?
Answer: > 100 µM (inactive)

Question: What about the GI50 [26] of the same molecule?
Answer: > 100 µM (inactive)

Question: What about the GI50 [27] of the same molecule?
Answer: > 100 µM (inactive)

Question: And the GI50 [28]?
Answer: > 100 µM (inactive)

Question: What about the GI50 [29] of the same molecule?
Answer: > 100 µM (inactive)

Question: What about the GI50 [30] of the same molecule?
Answer: > 100 µM (inactive)

Question: What about the GI50 [31] of the same molecule?
Answer: > 100 µM (inactive)

Question: What about the GI50 [32] of the same molecule?
Answer: 94.6 µM (inactive)

Question: What about the GI50 [33] of the same molecule?
Answer: > 100 µM (inactive)

Question: And the GI50 [34]?
Answer: > 100 µM (inactive)

Question: What about the GI50 [35] of the same molecule?
Answer: > 100 µM (inactive)

Question: What about the GI50 [36] of the same molecule?
Answer: > 100 µM (inactive)

Question: And the GI50 [37]?
Answer: > 100 µM (inactive)

Question: And the GI50 [38]?
Answer: > 100 µM (inactive)

Question: And the GI50 [39]?
Answer: > 100 µM (inactive)

Question: What about the GI50 [40] of the same molecule?
Answer: > 100 µM (inactive)

Question: What about the GI50 [41] of the same molecule?
Answer: > 100 µM (inactive)

Question: And the GI50 [42]?
Answer: > 100 µM (inactive)

Question: And the GI50 [43]?
Answer: > 100 µM (inactive)

Question: What about the GI50 [44] of the same molecule?
Answer: > 100 µM (inactive)

Question: What about the GI50 [45] of the same molecule?
Answer: > 100 µM (inactive)

Question: What about the GI50 [46] of the same molecule?
Answer: > 100 µM (inactive)

Question: And the GI50 [47]?
Answer: > 100 µM (inactive)

Question: And the GI50 [48]?
Answer: > 100 µM (inactive)

Question: What about the GI50 [49] of the same molecule?
Answer: > 100 µM (inactive)

Question: What about the GI50 [50] of the same molecule?
Answer: > 100 µM (inactive)

Question: What about the GI50 [51] of the same molecule?
Answer: > 100 µM (inactive)

Question: And the GI50 [52]?
Answer: > 100 µM (inactive)

Question: What about the GI50 [53] of the same molecule?
Answer: > 100 µM (inactive)

Question: And the GI50 [54]?
Answer: > 100 µM (inactive)

Question: With CC(C)(C)OC(=O)N1CC(C)(C)N2C(=O)C3(CCCO3)C12 (stereo not given) as the molecule, how does the GI50 [1] read?
Answer: > 100 µM (inactive)

Question: What about the GI50 [2] of the same molecule?
Answer: > 100 µM (inactive)

Question: And the GI50 [3]?
Answer: > 100 µM (inactive)

Question: And the GI50 [4]?
Answer: > 100 µM (inactive)

Question: And the GI50 [5]?
Answer: > 100 µM (inactive)

Question: And the GI50 [6]?
Answer: > 100 µM (inactive)

Question: What about the GI50 [7] of the same molecule?
Answer: > 100 µM (inactive)

Question: And the GI50 [8]?
Answer: > 100 µM (inactive)

Question: What about the GI50 [9] of the same molecule?
Answer: > 100 µM (inactive)

Question: And the GI50 [10]?
Answer: 14.9 µM (inactive)

Question: What about the GI50 [11] of the same molecule?
Answer: > 100 µM (inactive)

Question: And the GI50 [12]?
Answer: > 100 µM (inactive)

Question: And the GI50 [13]?
Answer: > 100 µM (inactive)

Question: What about the GI50 [14] of the same molecule?
Answer: > 100 µM (inactive)

Question: And the GI50 [15]?
Answer: 19.5 µM (inactive)

Question: What about the GI50 [16] of the same molecule?
Answer: 58.9 µM (inactive)

Question: And the GI50 [55]?
Answer: > 100 µM (inactive)

Question: And the GI50 [17]?
Answer: > 100 µM (inactive)

Question: What about the GI50 [18] of the same molecule?
Answer: > 100 µM (inactive)

Question: What about the GI50 [19] of the same molecule?
Answer: > 100 µM

Question: What about the GI50 [20] of the same molecule?
Answer: > 100 µM (inactive)

Question: What about the GI50 [21] of the same molecule?
Answer: > 100 µM (inactive)

Question: And the GI50 [22]?
Answer: > 100 µM (inactive)

Question: And the GI50 [23]?
Answer: > 100 µM (inactive)

Question: And the GI50 [24]?
Answer: > 100 µM (inactive)

Question: What about the GI50 [25] of the same molecule?
Answer: > 100 µM (inactive)

Question: And the GI50 [26]?
Answer: > 100 µM (inactive)

Question: And the GI50 [27]?
Answer: > 100 µM (inactive)

Question: What about the GI50 [28] of the same molecule?
Answer: > 100 µM (inactive)

Question: What about the GI50 [29] of the same molecule?
Answer: > 100 µM (inactive)

Question: And the GI50 [30]?
Answer: 67.1 µM (inactive)

Question: What about the GI50 [31] of the same molecule?
Answer: > 100 µM (inactive)

Question: What about the GI50 [32] of the same molecule?
Answer: > 100 µM (inactive)

Question: And the GI50 [56]?
Answer: > 100 µM (inactive)

Question: And the GI50 [33]?
Answer: > 100 µM (inactive)

Question: And the GI50 [34]?
Answer: 45.3 µM (inactive)

Question: And the GI50 [35]?
Answer: > 100 µM (inactive)

Question: And the GI50 [36]?
Answer: > 100 µM (inactive)

Question: What about the GI50 [37] of the same molecule?
Answer: > 100 µM (inactive)

Question: What about the GI50 [38] of the same molecule?
Answer: > 100 µM (inactive)

Question: What about the GI50 [39] of the same molecule?
Answer: > 100 µM (inactive)

Question: And the GI50 [40]?
Answer: > 100 µM (inactive)

Question: And the GI50 [41]?
Answer: > 100 µM (inactive)

Question: And the GI50 [57]?
Answer: > 100 µM (inactive)

Question: What about the GI50 [42] of the same molecule?
Answer: > 100 µM (inactive)

Question: And the GI50 [43]?
Answer: > 100 µM (inactive)

Question: What about the GI50 [45] of the same molecule?
Answer: > 100 µM (inactive)

Question: And the GI50 [46]?
Answer: > 100 µM (inactive)

Question: What about the GI50 [47] of the same molecule?
Answer: > 100 µM (inactive)

Question: And the GI50 [48]?
Answer: > 100 µM (inactive)

Question: And the GI50 [49]?
Answer: > 100 µM (inactive)

Question: What about the GI50 [50] of the same molecule?
Answer: > 100 µM (inactive)

Question: What about the GI50 [51] of the same molecule?
Answer: > 100 µM (inactive)

Question: And the GI50 [52]?
Answer: 37.8 µM (inactive)

Question: And the GI50 [53]?
Answer: > 100 µM (inactive)

Question: And the GI50 [54]?
Answer: > 100 µM (inactive)
